Reference: patent publication US5705508A, “Anti-tumor compounds, pharmaceutical compositions, methods for preparation thereof and for treatment” (priority 1995, dated 1998)
Entries after “also recorded” stand apart in the source; their conditions may differ. Like-named read-outs stand apart in the source and are kept apart here.

Assays:
[1] = aqueous media, cited from earlier work
A121 (ovarian cancer) = experiment: Anticancer activity, inhibition of cell proliferation, A121 (ovarian); assay type: cell-based; conditions: Homo sapiens
Method: (§1) Compounds SB-T-101131, SB-T-101133, SB-T-101134, SB-T-10114, SB-T-101141, SB-T-101142, SB-T-101143, SB-T-101144, SB-T-101146, SB-T-101151 and SB-T-101161 were prepared according to the protocols described in Examples 59 and 60 above. These compounds were evaluated for cancer activity against human cancer cell lines of A121 (ovarian cancer), A549 (non-small cell lung cancer), HT-29 (colon cancer), MCF7 (breast cancer), and MCF7-R (adriamycin resistant breast cancer). Table 1 below illustrates the activity of these compounds as IC50 values in a nM concentration.
(§2) […] ACTIVITY OF NEW TAXANES (IC50 nM).
(§3) ^a IC50 represents the concentration that inhibits 50% of cell
(§4) proliferation. ^b MCF7R = mammary carcinoma cells 180 fold resistant
(§5) The cytotoxicities of the new taxanes shown in FIG. 1 hereto and listed in Table 1 were evaluated in vitro against human cancer cell lines according to methods more particularly described in Ojima, I., et al., "Structure--Activity Relationships of New Taxoids Derived from 14β-Hydroxy-10-Deacetyl/Baccatin III," Journal of Medicinal Chemistry, 37, 1408-1410 (1994) and Ojima, I., et al., "Synthesis and Biological Activity of 14-hydroxydocetaxel," Bioorganic and Medicinal Chemistry Letters, 4, 1571-1576 (1994) the contents of which are incorporated herein by reference as if set forth in full.

[2] = compared with Taxol; listed as Taxotere; cited from earlier work
MCF7 (breast cancer) = experiment: Anticancer activity, inhibition of cell proliferation, MCF7 (breast); assay type: cell-based; conditions: Homo sapiens
Method: as §1, §2, §3, §4, §5

different cancers = conditions: background statement; cited from earlier work
HT-29 (colon cancer) = experiment: Anticancer activity, inhibition of cell proliferation, HT-29 (colon); assay type: cell-based; conditions: Homo sapiens
Method: as §1, §2, §3, §4, §5

[3] = tested on: A549 (non-small cell lung cancer); experiment: Anticancer activity, inhibition of cell proliferation, A549 (NSCLC); assay type: cell-based; conditions: Homo sapiens
Method: as §1, §2, §3, §4, §5

[4] = clinical trials; cited from earlier work
[5] = tested on: MCF7-R (adriamycin resistant breast cancer); experiment: Anticancer activity, inhibition of cell proliferation, MCF7-R (adriamycin resistant breast); assay type: cell-based; conditions: Homo sapiens, MCF7R, read-out: IC50, MCF7-R
Method: as §1, with “cancer).” for “cancer). Table 1 below illustrates the activity of these compounds as IC50 values in a nM concentration.”
as §3, §4, §5

[6] = concentration that inhibits 50% of cell proliferation, A121 (ovarian), read-out: IC50, A121 (ovarian)
[7] = concentration that inhibits 50% of cell proliferation, MCF7 (breast), read-out: IC50, MCF7 (breast)
[8] = concentration that inhibits 50% of cell proliferation, HT-29 (colon), read-out: IC50, HT-29 (colon)
[9] = concentration that inhibits 50% of cell proliferation, A549 (NSCLC), read-out: IC50, A549 (NSCLC)
[10] = concentration that inhibits 50% of cell proliferation, mammary carcinoma cells 180 fold resistant to adriamycin

Row | SMILES | IC50 (A121 (ovarian cancer); [6]) [nM] | IC50 (MCF7 (breast cancer); [7]) [nM] | IC50 (HT-29 (colon cancer); [8]) [nM] | IC50 [3, 9] [nM] | IC50 [5, 10] [nM] | other results
1 | CC(=O)O[C@@]12CO[C@@H]1C[C@H](O)[C@@]1(C)C(=O)[C@H](O)C3=C(C)[C@@H](O)[C@H](O)[C@@](O)([C@@H](OC(=O)c4ccccc4)[C@H]21)C3(C)C [14-OH-DAB, 14-Hydroxy-10-deacetylbaccatin III] |  |  |  |  |  | water solubility [1]: much higher water solubility than the usual 10-deacetylbaccatin III
2 | CC(=O)O[C@@]12CO[C@@H]1C[C@H](O)[C@@]1(C)C(=O)[C@H](O)C3=C(C)[C@@H](OC(=O)[C@H](O)[C@@H](NC(=O)OC(C)(C)C)c4ccccc4)C[C@@](O)([C@@H](OC(=O)c4ccccc4)[C@H]21)C3(C)C [Docetaxel] | 1.2 | 1 | 1.2 | 1 |  | water solubility [1]: somewhat improved water solubility; bioavailability / pharmacological properties [2]: better pharmacological properties than Taxol; also recorded: better bioavailability; cytotoxicity and antitumor activity (different cancers): antitumor activity superior to Taxol; side effects [4]: mouth sores and a plunge in white blood cell count
3 | CC(=O)O[C@H]1C(=O)[C@@]2(C)[C@H]([C@H](OC(=O)c3ccccc3)[C@]3(O)C[C@H](OC(=O)[C@H](O)[C@@H](NC(=O)c4ccccc4)c4ccccc4)C(C)=C1C3(C)C)[C@]1(OC(C)=O)CO[C@@H]1C[C@@H]2O [Paclitaxel, reference compound] | 6.1 | 1.7 | 3.2 | 3.6 | 300 | water solubility ([1]; listed as Taxol): limited solubility in aqueous media; also recorded: poor water solubility; cytotoxicity and antitumor activity (different cancers): high cytotoxicity and strong antitumor activity; side effects [4]: nerve damage, muscle pain or disturbances in heart rhythm
4 | CC(=O)OC12COC1CC(O)C1(C)C(=O)C(O)C3=C(C)C(OC(=O)C(O)C(C=C(C)C)NC(=O)OC(C)(C)C)C4OC(=O)OC4(C(OC(=O)c4ccccc4)C21)C3(C)C (stereo not drawn) [SB-T-10114] | 1.7 | 0.5 | 0.5 | 0.2 | 54 | 
5 | CC(=O)O[C@H]1C(=O)[C@@]2(C)[C@H]([C@H](OC(=O)c3ccccc3)[C@]34OC(=O)O[C@H]3[C@H](OC(=O)[C@H](O)[C@H](CC(C)C)NC(=O)OC(C)(C)C)C(C)=C1C4(C)C)[C@]1(OC(C)=O)CO[C@@H]1C[C@@H]2O [SB-T-101131] | 1.2 | 1.1 | 1.5 | 0.7 | 36 | 
6 | CC(=O)OC12COC1CC(O)C1(C)C(=O)C(OC(=O)C3CC3)C3=C(C)C(OC(=O)C(O)C(CC(C)C)NC(=O)OC(C)(C)C)C4OC(=O)OC4(C(OC(=O)c4ccccc4)C21)C3(C)C (stereo not drawn) [SB-T-101133] | 1.1 | 0.7 | 3.3 | 1.2 | 22 | 
7 | CC(=O)OC12COC1CC(O)C1(C)C(=O)C(OC(=O)N(C)C)C3=C(C)C(OC(=O)C(O)C(CC(C)C)NC(=O)OC(C)(C)C)C4OC(=O)OC4(C(OC(=O)c4ccccc4)C21)C3(C)C (stereo not drawn) [SB-T-101134] |  |  |  |  |  | IC50 (A121 (ovarian cancer); A121, read-out: IC50, A121 (ovarian)): 0.6 nM; IC50 (MCF7 (breast cancer); MCF7, read-out: IC50, MCF7 (breast)): 0.6 nM; IC50 (HT-29 (colon cancer); HT-29, read-out: IC50, HT-29 (colon)): 1.3 nM; IC50 ([3]; A549, read-out: IC50, A549 (NSCLC)): 0.6 nM; IC50 [5]: 22 nM
8 | CC(=O)OC1C(=O)C2(C)C(O)CC3OCC3(OC(C)=O)C2C(OC(=O)c2ccccc2)C23OC(=O)OC2C(OC(=O)C(O)C(C=C(C)C)NC(=O)OC(C)(C)C)C(C)=C1C3(C)C (stereo not drawn) [SB-T-101141] | 1.5 | 3.3 | 2.4 | 1.4 | 36 | 
9 | CCC(=O)OC1C(=O)C2(C)C(O)CC3OCC3(OC(C)=O)C2C(OC(=O)c2ccccc2)C23OC(=O)OC2C(OC(=O)C(O)C(C=C(C)C)NC(=O)OC(C)(C)C)C(C)=C1C3(C)C (stereo not drawn) [SB-T-101142] | 0.7 | 0.1 | 0.6 | 0.5 | 21 | 
10 | CC(=O)OC12COC1CC(O)C1(C)C(=O)C(OC(=O)C3CC3)C3=C(C)C(OC(=O)C(O)C(C=C(C)C)NC(=O)OC(C)(C)C)C4OC(=O)OC4(C(OC(=O)c4ccccc4)C21)C3(C)C (stereo not drawn) [SB-T-101143] | 0.5 | 0.2 | 1 | 0.5 | 24 | 
11 | CC(=O)OC12COC1CC(O)C1(C)C(=O)C(OC(=O)N(C)C)C3=C(C)C(OC(=O)C(O)C(C=C(C)C)NC(=O)OC(C)(C)C)C4OC(=O)OC4(C(OC(=O)c4ccccc4)C21)C3(C)C (stereo not drawn) [SB-T-101144] | 0.7 | 0.2 | 1.2 | 0.6 | 22 | 
12 | COC(=O)OC1C(=O)C2(C)C(O)CC3OCC3(OC(C)=O)C2C(OC(=O)c2ccccc2)C23OC(=O)OC2C(OC(=O)C(O)C(C=C(C)C)NC(=O)OC(C)(C)C)C(C)=C1C3(C)C (stereo not drawn) [SB-T-101146] | 0.6 | 0.3 | 0.7 | 0.5 | 38 | 
13 | CC=CC(NC(=O)OC(C)(C)C)C(O)C(=O)OC1C(C)=C2C(OC(C)=O)C(=O)C3(C)C(O)CC4OCC4(OC(C)=O)C3C(OC(=O)c3ccccc3)C3(OC(=O)OC13)C2(C)C (stereo not drawn) [SB-T-101151] | 2.4 | 1.6 | 3 | 0.4 | 49 | 
14 | CC(=O)OC1C(=O)C2(C)C(O)CC3OCC3(OC(C)=O)C2C(OC(=O)c2ccccc2)C23OC(=O)OC2C(OC(=O)C(O)C(NC(=O)OC(C)(C)C)c2ccco2)C(C)=C1C3(C)C (stereo not drawn) [SB-T-101161] | 0.4 | 0.5 | 0.6 | 0.5 | 58 | 
